From patent US5143908A, “Antibacterial agents and potentiators of carbapenem antibiotics” (Merck & Co., Inc., priority 1990, dated 1992)
Converted amounts (≈) assume the structure as drawn.

Assays:
[1] = target: T1, D-Alanyl-D-Alanine ligase (Enterococcus hirae, UniProt Q47827); experiment: D-Alanyl-D-Alanine ligase inhibition in vitro; assay type: biochemical; conditions: inhibitor pre-incubated with enzyme 40 minutes at room temperature, then 37° C. for 30 minutes; 14C-D-alanine substrate; read-out: IC50 (μM), DAlaAla ligase inhibition
T1 sequence (Q47827 1-358): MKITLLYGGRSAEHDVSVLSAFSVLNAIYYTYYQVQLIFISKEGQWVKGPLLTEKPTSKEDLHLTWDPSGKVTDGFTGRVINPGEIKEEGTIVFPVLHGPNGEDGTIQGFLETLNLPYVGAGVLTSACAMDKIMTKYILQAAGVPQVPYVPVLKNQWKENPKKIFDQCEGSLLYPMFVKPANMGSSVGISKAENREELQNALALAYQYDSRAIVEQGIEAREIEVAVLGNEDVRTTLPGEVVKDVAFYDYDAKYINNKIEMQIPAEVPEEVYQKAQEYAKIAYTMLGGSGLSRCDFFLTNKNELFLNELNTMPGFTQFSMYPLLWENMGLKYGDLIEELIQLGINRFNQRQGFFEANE
Experimental: The ligase enzyme inhibitory activity of compounds of Formula I have been evaluated in vitro with only minor modifications of the procedures of F. C. Neuhaus (Biochemistry 3, 471-480 (1964) and references cited therein) using D-cycloserine as a control and standard ligase inhibitor. The procedure is as follows:
Streptococcus faecalis (ATCC 8043) was grown as described by Neuhaus (J. Biol. Chem., 237:778, 1962). Cell-free extracts were prepared by sonication followed by centrifugation at 27,000 x g for 30 minutes. Protein was precipitated with 55% ammonium sulfate. The precipitate was dissolved in 0.05M Tris-Cl buffer (pH 7.0), dialyzed against 0.002M glutathione and stored in liquid nitrogen. No loss of activity was observed after 1 year.
The assay mixture contained 0.05M Tris-Cl buffer (pH 7.9), 0.01M KCl, 0.008M MgCl2, 0.005M ATP, 0.005M (14C-l)-D-alanine and 5 μl of enzyme (specific activity=0.38 units/mg protein). Assay volume was 0.1 ml.
Inhibitors were pre-incubated with enzyme, MgCl2, KCl and buffer, for 40 minutes at room temperature, before addition of ATP and substrate. Samples were subsequently incubated at 37° C. for 30 minutes.
Twenty μl of each sample was applied to the preabsorbent layer of high resolution, prechanneled silica-gel TLC plates to stop the reaction. Plates were developed in ethanol:ammonium hydroxide:H2 O (11:1:8) for 2-3 hours and the radioactive zones located and integrated with a Berthold Linear Analyzer. […] IC50's were determined for active compounds (70% inhibition).

E. coli TEM 2+ = experiment: Agar dilution antibacterial assay (MIC); assay type: cell-based; conditions: Escherichia coli, read-out: Minimum Inhibitory Concentration, E. coli TEM 2+
Text: The antibacterial data shown below were obtained using a synthetic agar medium described by F. R. Atherton et al., Antimicrobial Agents and Chemotherapy, 15, 677 (1979).
(Minimum Inhibitory Concentrations from Agar Dilution Assays in mg/ml)

| SMILES | IC50 [1] [µM] | MIC (E. coli TEM 2+) [mg/mL] |
| --- | --- | --- |
| CC(N)P(=O)(O)CCC(=O)O (racemic) [DL, R2=H, R3=H, 1-Aminoethyl-[2-carboxy-1-ethyl]phosphinic acid] | 535 |  |
| CCC(CP(=O)(O)C(C)N)C(=O)O (racemic) [DL, R2=ethyl, R3=H, 1-Aminoethyl-[2-carboxy-1-n-butyl]phosphinic acid] | 50 |  |
| CCCCCCCC(CP(=O)(O)C(C)N)C(=O)O (racemic) [DL, R2=n-heptyl, R3=H, 1-Aminoethyl-[2-carboxy-1-nonyl]phosphinic acid] | 12.5 |  |
| CCC(CP(=O)(O)[C@@H](C)N)C(=O)O (stereo partly drawn) [D, R2=ethyl, R3=H, 1-D-Aminoethyl-(2-carboxy-1-n-butyl)phosphinic acid] |  | 64 (≈ 306 mM) |
